Patent publication US12502369B2, “Methods of cancer treatment” (K-GEN, INC., priority 2015, dated 2025)

Assays:
[1] = test system: Wnt signaling pathway; assay: TOPFlash / TK-RL Dual Luciferase assay (Wnt signaling), A549; assay type: cell-based; conditions: 24 hours, K101A 1, 3, 10 μM, K102 0.03, 0.1, 0.3 μM
Experimental: A549 cells (20K cells/well) were seeded in 96-well plates on Day 1. Cells were transfected with a mixture of TOPFlash firefly luciferase reporter plasmid M50 (300 ng/well) (Adagene) and an internal control plasmid pRL-TK-Renilla luciferase (20 ng/well) (Promega) using FuGene transfection reagent (plasmid:FuGene=1:4) (Promega) on Day 2. […] Luciferase activities in treated cells were measured using Dual-Glo Luciferase Kit according to manufacturer's instructions (Promega) on Envision (Perkin Elmer). TOPFlash has been used as a reporter for activation of Wnt signaling pathway. […] It has been reported that PKC activators, via suppression of K-Ras stemness pathway, can block canonical Wnt signaling in pancreatic cancer cells. The data here indicate that PKC activator can also block canonical Wnt signaling in lung cancer cells.

[2] = test system: Cancer cell lines (161 different lines); assay: Proliferation assay, 161 cancer cell lines, 72 hours; assay type: cell-based
Experimental: Cells were treated for 72 hours instead of 96 hours. Thus, cell numbers from individual cell line were optimized so that cells were ˜70-80% confluent in 72 hours when treated with vehicle only. […] A number of other cancer cell lines from bladder, ovarian, myeloma, prostrate, and renal cancers are also sensitive to K-101A. Most cell lines from liver and lung (SCLC) are resistant to K101A.

CC(=O)O[C@@]12C[C@@H](C)[C@]3(O)C4C=C(C)C(=O)[C@@]4(O)CC(CO)=C[C@H]3[C@@H]1C2(C)C (stereo partly drawn) [Compound K-101A, Prostratin]
maximal inhibition of TOPFlash activity [1]: about 60%
sensitivity of most cell lines from liver and lung (SCLC) [2]: resistant
cell lines showing top inhibition above 30% ([2]; 161 cell lines): Roughly 50 % of the cell lines
cell lines showing top inhibition above 50% ([2]; 161 cell lines): ~25 % of the cell lines
lines having a top inhibition above 30% ([2]; breast cancer cell lines): 9 out of 18
lines having a top inhibition above 30% ([2]; leukemia cell lines): 10 out of 11
